Data reported in patent US10273228B2, “Hepatitis B viral assembly effectors” (Indiana University Research and Technology Corporation, priority 2015, dated 2019).
Read-outs that look alike come from different tables or passages of the source.

Experiments:
[1] = system: AD38 cells; assay: AD38 viability normalized to DMSO control; type: cell-based; settings: 10 μM compound, vs DMSO control
Protocol: (§1) AD38 cells were then re-suspended with 10 mL of treatment medium and counted. Wells of a collagen coated 96-well NUNC microtiter plate were seeded at 50,000/well in 180 μL of treatment medium, and 20 μL of either 10% DMSO (Control) or a 10× solution of test compound in 10% DMSO in treatment media was added for a final compound concentration 1, 3, or 10 μM (1.0% final [DMSO]) and plates were incubated for 6 days at 37° C.

[2] = system: HBV viral load, AD38 cells; assay: Activity of test compounds on viral production from AD38 cells (viral load by quantitative PCR of the core sequence in supernatant); type: cell-based, Hepatitis B virus; settings: 10 μM compound, 6 days at 37° C., vs DMSO control wells; for activity at 10 µM: Hepatitis B virus, 144 h, read-out: AD38 Viral Load (CpAM/DMSO %) at 10 μM
Protocol: as §1
Subsequently viral load production was assayed by quantitative PCR of the core sequence. Briefly, 5 μL of clarified supernatant was added to a PCR reaction mixture that contained forward primers HBV-f 5′-CTGTGCCTTGGGTGGCTTT-3′, Reverse primers HBV-r 5′-[…]-3′ and Fluorescent TaqMan™ Probes HBV-probe 5′-FAM/AGCTCCAAA/ZEN/[…]/3IABkFQ-3′ in Quanta Biosciences PerfeCTa® qPCR Toughmix®, and was subsequently on an Applied Biosystems VIIA7 in a final volume of 20 μL. The PCR mixture was incubated at 45° C. for 5 minutes, then 95° C. for 10 min, followed by 40 cycles of 10 seconds at 95° C. and 20 seconds at 60° C. Viral load was quantitated against known standards by using ViiA™ 7 Software. Viral load in the supernatant from wells with treated cells were compared against viral load in supernatant from DMSO control wells (≥3 per plate).

Compound | AD38 Viability Normalized Result (CPAM/DMSO %) at 10 μM ([1]; Table 6) | activity at 10 µM ([2]; Table 6) | AD38 Viability Normalized Result (CPAM/DMSO %) at 10 μM ([1]; Table 9) | activity at 10 µM ([2]; Table 9) | AD38 Viral Load (CpAM/DMSO %) at 10 μM ([2]; Table 9)
Cc1ccc(S(=O)(=O)N2CCN(c3nc(Oc4ccc(F)cc4)cc(C(C)C)n3)CC2)cc1 [Compound 1288] | 105% | 102% | – | – | –
Cc1ccc(S(=O)(=O)N2CCN(c3nc(Oc4ccc(F)cc4)cc(N(C)C)n3)CC2)cc1 [Compound 1290] | 105% | 62% | – | – | –
COc1ccc(S(=O)(=O)N2CCN(c3nc(C)cc(Nc4ccc(F)cc4)n3)C(C)C2)cc1 (centres unmarked) [Compound 1371] | – | – | 111% | 29% | –
Cc1ccc(Nc2cc(C)nc(N3CCN(S(=O)(=O)c4cccc5ccccc45)CC3)n2)cc1 [Compound 1135] | 107% | 16% | – | – | –
O=S(=O)(c1ccc(F)cc1)N1CCN(c2nc(Nc3ccc(F)cc3)cc(-n3cnnc3)n2)CC1 [Compound 1312] | 96% | 31% | – | – | –
CCCOc1ccc(S(=O)(=O)N2CCN(c3nc(Nc4ccc(F)cc4)cc(C(F)(F)F)n3)CC2)cc1 [Compound 1400] | – | – | 93% | 73% | –
Cc1cc(Nc2ccc(F)cc2)nc(N2CCN(S(=O)(=O)c3cccc(CC(=O)O)c3)CC2)n1 [Compound 1411, 2-(3-((4-(4-((4-fluorophenyl)amino)-6-methylpyrimidin-2-yl)piperazin-1-yl)sulfonyl)phenyl) acetic acid] | – | – | 102% | 117% | –
COc1ccc(S(=O)(=O)N2CCN(c3nc(NCCO)cc(Nc4ccc(C)cc4)n3)CC2)cc1 [Compound 1232] | 96% | 83% | – | – | –
CCOc1ccc(S(=O)(=O)N2CCN(c3nc(C)cc(Nc4ccc(F)cc4)n3)CC2)cc1 [Compound 1336] | – | – | 103% | 59% | –
C[C@@H](Oc1ccc(S(=O)(=O)N2CCN(c3nc(Nc4ccc(F)cc4)cc(C(F)(F)F)n3)CC2)cc1)C(=O)O [Compound 1409, (R)-2-(4-((4-(4-((4-fluorophenyl)amino)-6-(trifluoromethyl)pyrimidin-2-yl)piperazin-1-yl)sulfonyl)phenoxy) propanoic acid] | – | – | 108% | 59% | –
CCOc1ccc(S(=O)(=O)N2CCN(c3nc(Nc4ccc(C#N)cc4)cc(-c4nccs4)n3)CC2)cc1 [Compound 1353] | – | – | 107% | 7% | –
COc1ccc(S(=O)(=O)N2CCN(c3nc(Nc4ccc(C)cc4)cc(N4CCSCC4)n3)CC2)cc1 [Compound 1241, 2-(4-((4-methoxyphenyl)sulfonyl)piperazin-1-yl)-6-thiomorpholino-N-(p-tolyl) pyrimidin-4-amine] | 98% | 65% | – | – | –
CCCCOc1ccc(S(=O)(=O)N2CCN(c3nc(Nc4ccc(C#N)cc4)cc(-c4cncs4)n3)CC2)cc1 [Compound 1369] | – | – | 96% | 56% | –
Cc1ccc(Nc2cc(C)nc(N3CCN(S(=O)(=O)c4cccs4)CC3)n2)cc1 [Compound 1146] | 106% | 15% | – | – | –
Cc1ccc(Nc2cc(C)nc(N3CCN(S(=O)(=O)c4cc(C(=O)Nc5cc(F)c(F)c(F)c5)ccc4F)CC3)n2)cc1 [Compound 1286, 4-fluoro-3-((4-(4-methyl-6-(p-tolylamino)pyrimidin-2-yl)piperazin-1-yl)sulfonyl)-N-(3,4,5-trifluorophenyl) benzamide] | 86% | 2% | – | – | –
COC(=O)CCCOc1ccc(S(=O)(=O)N2CCN(c3nc(Nc4ccc(F)cc4)cc(C(F)(F)F)n3)CC2)cc1 [Compound 1397, methyl 4-(4-((4-(4-((4-fluorophenyl)amino)-6-(trifluoromethyl)pyrimidin-2-yl)piperazin-1-yl)sulfonyl)phenoxy) butanoate] | – | – | 33% | – | 5%
Cc1cc(Nc2ccc(F)cc2)nc(N2CCN(S(=O)(=O)c3ccc(OCC(=O)O)cc3)CC2)n1 [Compound 1384, 2-(4-((4-(4-((4-fluorophenyl)amino)-6-methylpyrimidin-2-yl)piperazin-1-yl)sulfonyl)phenoxy) acetic acid] | – | – | 91% | 122% | –
Cc1ccc(S(=O)(=O)N2CCN(c3nc(C)cc(Nc4ccc(F)cc4)n3)CC2)cc1 [Compound 1339] | – | – | 93% | 50% | –
COc1ccc(S(=O)(=O)N2CCN(c3nc(C)cc(Nc4ccc(C#N)cc4)n3)CC2=O)cc1 [Compound 1366, 4-((2-(4-((4-methoxyphenyl)sulfonyl)-3-oxopiperazin-1-yl)-6-methylpyrimidin-4-yl)amino) benzonitrile] | – | – | 108% | 41% | –
Cc1ccc(Nc2cc(C)nc(N3CCN(S(=O)(=O)c4ccccc4C)CC3)n2)cc1 [Compound 1153] | 109% | 21% | – | – | –
O=S(=O)(c1ccccc1)N1CCN(c2nc(Oc3ccc(F)cc3)cc(-n3cnnc3)n2)CC1 [Compound 1311] | 86% | 66% | – | – | –
COc1ccc(S(=O)(=O)N2CCN(c3nc(C)cc(Nc4ccc(F)cc4)n3)CC2C)cc1 (centres unmarked) [Compound 1348] | – | – | 102% | 5% | –
Cc1cc(Nc2ccc(F)cc2)nc(N2CCN(S(=O)(=O)c3ccc(OCCN4CCOCC4)cc3)CC2)n1 [Compound 1383, N-(4-fluorophenyl)-6-methyl-2-(4-((4-(2-morpholinoethoxy)phenyl)sulfonyl)piperazin-1-yl) pyrimidin-4-amine] | – | – | 94% | 14% | –
COc1ccc(S(=O)(=O)N2CCN(c3nc(C)cc(Nc4ccc(C#N)cc4)n3)CC2(C)C)cc1 [Compound 1376] | – | – | 121% | 20% | –
COc1ccc(S(=O)(=O)N2CCN(c3nc(Nc4ccc(C)cc4)cc(-c4ncc[nH]4)n3)CC2)cc1 [Compound 1274, 6-(1H-imidazol-2-yl)-2-(4-((4-methoxyphenyl)sulfonyl)piperazin-1-yl)-N-(p-tolyl) pyrimidin-4-amine] | 92% | 19% | – | – | –
COc1ccc(S(=O)(=O)N2CCN(c3nc(C)cc(Nc4cccnc4)n3)CC2)cc1 [Compound 1234] | 101% | 82% | – | – | –
COc1ccc(S(=O)(=O)N2CCN(c3nc(Nc4ccc(C)cc4)cc(N4CCCCC4)n3)CC2)cc1 [Compound 1190] | 83% | 72% | – | – | –
COc1ccc(S(=O)(=O)N2CCN(c3nc(Nc4ccc(C)cc4)cc(N(C)C(C)(C)C)n3)CC2)cc1 [Compound 1273, N^4-(tert-butyl)-2-(4-((4-methoxyphenyl)sulfonyl)piperazin-1-yl)-N^4-methyl-N^6-(p-tolyl) pyrimidine-4,6-diamine] | 98% | 16% | – | – | –
